Measured values: patent US7846719B2, “Express system of soluble glutaminyl cyclase” (Academia Sinica, priority 2006, dated 2010)
Read-outs that look alike come from different tables or passages of the source. Peptide text beside a SMILES is read from it.

Key:
Human QC [1] = target: T1, Human QC (Homo sapiens, UniProt Q16769); assay: QC inhibition test, spectrophotometric, 96-well microplate; format: biochemical; design: corresponding to the coding region of human QC (Ala33-Leu361) was re-amplified and inserted into a pET-43.1a expression vector; Nus fusion (pET-43.1a construct) or thioredoxin fusion (pET-32a construct) (N, cleaved yes); (His)6 (pET-43.1a construct: N- and C-terminal sites; pET-32a construct: 5'-end, upstream of the Factor Xa site); made in house; host or cells: E. coli BL21 (DE3); conditions: inhibitor 140 μM, substrate H-Gln-Gln-OH 0.55 mM, human QC 28.8 nM, preincubation 5 to 10 min; for remaining activity at 140 µM: read-out: QC activity (% of control)
Method: Reactions were started by the addition of QC (0.04 to 2.5 μg), and the activity was monitored by recording the decrease of NADH absorbance at 340 nm.
For an inhibition test, the reaction composition was the same as described above, except for the addition of the inhibitor compound. Prior to the spectrophotometric analysis on a 96-well microplate, the enzyme was incubated with the inhibitor for 5 to 10 min.
Target sequence in this assay (Q16769 33-361): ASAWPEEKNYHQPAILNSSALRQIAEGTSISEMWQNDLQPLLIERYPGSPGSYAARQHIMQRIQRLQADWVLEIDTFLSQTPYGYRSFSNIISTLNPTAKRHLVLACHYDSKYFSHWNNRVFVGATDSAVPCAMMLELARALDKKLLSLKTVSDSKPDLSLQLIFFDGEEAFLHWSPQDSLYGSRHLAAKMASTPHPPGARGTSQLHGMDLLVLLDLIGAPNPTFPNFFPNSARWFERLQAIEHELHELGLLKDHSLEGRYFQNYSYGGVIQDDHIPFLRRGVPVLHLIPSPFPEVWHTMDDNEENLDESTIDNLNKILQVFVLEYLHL

Human QC [2] = target: T1, Human QC; assay: QC activity analysis by reverse-phase HPLC on [Gln1]-TRH; format: biochemical; design: corresponding to the coding region of human QC (Ala33-Leu361) was re-amplified and inserted into a pET-43.1a expression vector; Nus fusion (pET-43.1a construct) or thioredoxin fusion (pET-32a construct) (N, cleaved yes); (His)6 (pET-43.1a construct: N- and C-terminal sites; pET-32a construct: 5'-end, upstream of the Factor Xa site); made in house; host or cells: E. coli BL21 (DE3); conditions: 50 mM Tris-HCl
Method: QC activity was analyzed based on reverse-phase HPLC and spectrophotometric measurement. […] A reaction without addition of human QC was provided as a control in the assay. Subsequently, a 20 μl aliquot of the mixture was subjected to HPLC analysis on a Waters liquid chromatograph using a C18 column (Waters, Milford, Mass.). The bound materials were eluted by a three-step linear gradient of methanol containing 0.1% trifluoroacetic acid (TFA). The eluates were detected at 214 nm and identified by mass spectrometry and N-terminal sequencing.
The synthetic [Gln^1]-TRH (Gln-His-Pro), one of the putative physiological substrates of human QC, was used to analyze the QC activity of the recombinant protein based on the HPLC elution profile of the peptide.
Target sequence in this assay (Q16769 33-361): as above

Human QC [3] = target: T1, Human QC; design: host or cells: Pichia pastoris; conditions: substrate of human QC expressed in Pichia pastoris cell; reported by Schilling et al.; cited from earlier work
Target sequence in this assay (Q16769 29-361): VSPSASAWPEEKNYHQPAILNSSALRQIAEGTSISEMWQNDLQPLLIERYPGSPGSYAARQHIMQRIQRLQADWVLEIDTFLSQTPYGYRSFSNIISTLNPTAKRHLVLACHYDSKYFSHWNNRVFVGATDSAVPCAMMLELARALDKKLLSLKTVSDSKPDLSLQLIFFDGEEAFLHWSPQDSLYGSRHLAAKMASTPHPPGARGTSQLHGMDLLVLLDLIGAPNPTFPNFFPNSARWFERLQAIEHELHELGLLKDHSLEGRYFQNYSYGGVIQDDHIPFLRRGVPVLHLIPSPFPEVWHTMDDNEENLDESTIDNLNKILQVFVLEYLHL

Human QC [4] = target: T1, Human QC; assay: Spectrophotometric QC activity assay (glutamate dehydrogenase coupled), human QC expressed in E. coli; format: biochemical; design: corresponding to the coding region of human QC (Ala33-Leu361) was re-amplified and inserted into a pET-43.1a expression vector; Nus fusion (pET-43.1a construct) or thioredoxin fusion (pET-32a construct) (N, cleaved yes); (His)6 (pET-43.1a construct: N- and C-terminal sites; pET-32a construct: 5'-end, upstream of the Factor Xa site); made in house; host or cells: E. coli BL21 (DE3); conditions: substrate of human QC expressed in Escherichia coli cell, mean ± SD (n = 2)
Method: For the spectrophotometric method, the 500 μl assay solutions consisted of 15 units glutamate dehydrogenase, 12 mM α-ketoglutarate, 0.6 mM NADH (a reduced form of NAD (nicotinamide adenine dinucleotide)) and varying concentrations of synthetic substrate in 50 mM Tris-HCl, pH 8.0. Reactions were started by the addition of QC (0.04 to 2.5 μg), and the activity was monitored by recording the decrease of NADH absorbance at 340 nm.
The Km and kcat values determined for the recombinant protein of the invention were very similar to the human QC expressed in Drosophila S2 cells, as evident in Table 1.
Target sequence in this assay (Q16769 33-361): as the sequence (Q16769 33-361) above

Human QC [5] = target: T1, Human QC; design: host or cells: Pichia pastoris; conditions: substrate of human QC expressed in Drosophila S2 cell; reported by Booth et al.; cited from earlier work
Target sequence in this assay (Q16769 29-361): as the sequence (Q16769 29-361) above

Compound: c1ccc(Cn2ccnc2)cc1 [1-benzylimidazole]
- remaining activity at 140 µM (Human QC [1]): 41.5%

Compound: [Gln^1]-TRH (Gln-His-Pro)
- Turnover in the absence of human QC (Human QC [2]; 5 days, pH 8.0, at 25° C., no enzyme): less than 20%
- Conversion into [pGlu1]-TRH by human QC (Human QC [2]; within 20 minutes, 0.6 μM human QC, 14.8 mM substrate, pH 8.0, 25° C.): almost completely converted

Compound: Nc1n[nH]c(N)n1 [3,5-diamino-1,2,4-triazole]
- remaining activity at 140 µM (Human QC [1]): 89.9%

Compound: CCOC(=O)Cc1nnn[nH]1 [ethyl 1H-tetrazole-5-acetate]
- remaining activity at 140 µM (Human QC [1]): 90.6%

Compound: CC(C)(C)OC(=O)[C@@H](N)CCC(N)=O [Gln-t-butyl ester, H-Gln-t-butyl ester]
- Km (Human QC [3]): 1200 ± 100 µM
- kcat (Human QC [3]): 6.7 ± 0.2 s⁻¹
- kcat (Human QC [4]): 20.9 ± 2.1 s⁻¹
- Km (Human QC [4]; 50 mM Tris-HCl, pH 8.0): 4100 ± 600 µM
- Km (Human QC [5]): 6700 ± 2000 µM
- kcat (Human QC [5]): 16.0 s⁻¹

Compound: Nc1nc[nH]n1 [3-amino-1,2,4-triazole]
- remaining activity at 140 µM (Human QC [1]): 84.5%

Compound: CSc1nnn[nH]1 [5-(methylthio)-1H-tetrazole]
- remaining activity at 140 µM (Human QC [1]): 89.1%

Compound: NC(=O)CC[C@H](NC(=O)[C@@H](N)CCC(N)=O)C(=O)O [Gln-Gln, H-Gln-Gln-OH] (H-Gln-Gln-OH)
- Km (Human QC [3]): 100 µM
- kcat (Human QC [3]): 20.7 ± 0.2 s⁻¹
- Km (Human QC [5]): 700 ± 400 µM
- kcat (Human QC [5]): 10.0 s⁻¹

Compound: O=c1[nH][nH]c(=O)n1-c1ccccc1 [4-phenyl-1,2,4-triazoleine-3,5-dione]
- remaining activity at 140 µM (Human QC [1]): 78.2%

Compound: c1ccc(N=c2[n-][n+](-c3ccccc3)cn2-c2ccccc2)cc1 [nitron]
- QC activity (% of control) (Human QC [1]): 61.4 % of control
